Assay results taken from US20070015937A1, “PROCESS FOR RECOVERY OF FLUORINATED CARBOXYLIC ACID SURFACTANTS FROM EXHAUST GAS” (priority 2005, published 2007).
Marks after values point to notes of the source that are not given here.

Assay: Determination of bio-accumulation: urinary clearance pharmacokinetic study in rats
Conditions: oral gavage; for Compound-related Effects: clinical signs of toxicity and gross necropsy at 96 hours post-dose
[1] = recovery of administered amount in urine after 96 h, 73 micro Moles per kg body weight, N=3
[2] = renal half-life, 73 micro Moles per kg body weight, N=3, urine by fluorine NMR, exponential least squares curve fitting
[3] = no parent compound observed in the urine, based on elimination of the major metabolite C3F7—O—CHFCOO−, 73 micro Moles per kg

Row | Compound | % Recovery (96 h) [1] [%] | T½ [2] [h] | Compound-related Effects (73 micro Moles per kg) | % Recovery (96 h) [3] | T½ (h) [3] | T½ (h) [2]
1 | N.O=C(O)C(F)(F)OC(F)(F)C(F)(F)C(F)(F)OC(F)(F)F [Compound 1, CF3—O—(CF2)3—O—CF2—COONH4] | 73 | – | – | – | – | –
2 | N.O=C(O)C(F)(F)OC(F)(F)OC(F)(F)F [Compound 2, CF3—OCF2—O—CF2—COONH4] | 96 | 12 | – | – | – | –
3 | N.O=C(O)C(F)(F)OC(F)(F)OC(F)(F)OC(F)(F)F [Compound 3, CF3—OCF2—OCF2—OCF2—COONH4] | 100 | 12 | – | – | – | –
4 | N.O=C(O)C(F)(F)OC(F)(F)C(F)(F)C(F)(F)OC(F)(F)F [Compound 4, CF3—(OCF2)3—OCF2—COONH4] | 50 | – | – | – | – | –
5 | N.O=C(O)C(F)(F)OC(F)(F)C(F)(F)C(F)(F)F [Compound 5, C3F7—O—CF2—COONH4] | 97 | 11 | – | – | – | –
6 | N.O=C(O)C(F)(F)C(F)(F)OC(F)(F)F [Compound 6, CF3—O—CF2—CF2—COONH4] | 100 | 11 | – | – | – | –
7 | N.O=C(O)C(F)(F)C(F)(F)OC(F)(F)C(F)(F)F [Compound 7, C2F5—O—CF2—CF2—COONH4] | 100 | 10 | – | – | – | –
8 | N.O=C(O)C(F)(F)C(F)(F)OC(F)(F)C(F)(F)C(F)(F)F [Compound 8, C3F7—O—CF2—CF2—COONH4] | 82 | 12 | – | – | – | –
9 | N.O=C(O)C(F)(F)C(F)(F)OC(F)(F)C(F)(F)C(F)(F)C(F)(F)F [Compound 9, C4F9—O—CF2—CF2—COONH4] | 42 | 31 | Hepatomegaly | – | – | –
10 | N.O=C(O)C(F)(F)OC(F)(F)C(F)(F)OC(F)(F)C(F)(F)F [Compound 10, C2F5—O—CF2—CF2—O—CF2—COONH4] | 99 | 10 | – | – | – | –
11 | N.O=C(O)C(F)(F)C(F)OC(F)(F)C(F)(F)C(F)(F)OC(F)(F)F (centres unmarked) [Compound 11, CF3—O—CF2—CF2—CF2—O—CHF—CF2—COONH4] | 84 | 12 | – | – | – | –
12 | N.O=C(O)C(F)OC(F)(F)C(F)(F)C(F)(F)OC(F)(F)F (centres unmarked) [Compound 12, CF3—O—CF2—CF2—CF2—O—CHF—COONH4] | 95 | 11 | – | – | – | –
13 | N.O=C(O)C(F)(F)C(F)OC(F)(F)C(F)(F)C(F)(F)F (centres unmarked) [Compound 13, C3F7—O—CFH—CF2COONH4] | 94 | 11 | – | – | – | –
14 | N.O=C(O)C(F)(F)C(F)(F)C(F)(F)C(F)(F)C(F)(F)OC(F)C(F)(F)F (centres unmarked) [Compound 14, CF3—CFH—O—(CF2)5—COONH4] | 32 | 24 | Hepatomegaly | – | – | –
15 | N.O=C(O)C(F)(F)C(F)(F)C(F)(F)OC(F)C(F)(F)F (centres unmarked) [Compound 15, CF3—CFH—O—(CF2)3—COONH4] | 95 | 8 | – | – | – | –
16 | N.O=C(O)COC(F)(F)C(F)OC(F)(F)C(F)(F)C(F)(F)F (centres unmarked) [Compound 16, C3F7—O—CFH—CF2—O—CH2—COONH4] | – | – | – | 65* % | 13* h | –
17 | N.O=C(O)C(F)(F)C(F)(F)C(F)(F)C(F)(F)C(F)(F)C(F)(F)C(F)(F)F [Compound C-1, C7F15COONH4, reference compound] | 6 | – | Hepatomegaly | – | – | ˜550 h
18 | CF3CF2CF2OCF(CF3)CF2OCF2COONH4 [Compound C-3, reference compound] | 5 | 95 | Hepatomegaly | – | – | –
